The test system of one assay is MM cells. In words: IC50 concentrations of HDAC inhibitors in MM cells. The class given is cell-based. Particulars: Homo sapiens.
Assay [1] relates to U266, RPMI, and MM1S cells. In words: Apoptosis (annexin) and necrosis (propidium iodide) by HDAC inhibitors, FIG. 15. Format: cell-based, human. Here is the method:
Apoptosis was measured by annexin staining while cell necrosis was measured by propidium iodide staining.
CD44 surface expression was analyzed by staining cells with CD44-FITC antibody (BD Biosciences) for 30 min. in the dark, at room temperature. Apoptosis was measured by Annexin V-FITC and Propidium Iodide (PI) (Clontech) staining for 15 min. in the dark, at room temperature and data immediately acquired on a Beckman Coulter FC500 (Beckman Coulter) machine. Analysis was conducted using the FlowJo Software vX.0.7 (Tree Star Inc.). For the multiparametric analysis, the bone marrow samples were stained with CD38-PE (347687; BD Bioscience), CD138-APC (347193; BD Bioscience), CD45-ECD (A07784; Beckman Coulter), CD44-FITC (BD Bioscience) and AnnexinV-FITC (Clontech) for 30 minutes, washed with PBS and immediately analyzed with Gallios cytometer (Beckman Coulter).

In a further assay the test system is MM.1S GFP/Luc+ cells. In words: NOD-SCID mice engrafted i.v. with MM.1S GFP/Luc+ cells, oral AR-42 + pomalidomide. Conditions: 25 mg/kg each. The class given is in vivo. From the text: To investigate whether the oral combination treatment of AR-42 and pomalidomide improves the survival of mice engrafted with MM cells, 40 NOD-SCID mice were engrafted with 10×10^6 MM.1S GFP/Luc+ cells by intravenous injection (IV). Ten days later, mice with the same tumor burden (as calculated by luminescence) (FIG. 14C) were randomly divided into 4 treatment groups (10 mice per group): AR-42 alone, pomalidomide alone, AR-42+pomalidomide, and vehicle control (Ctrl, 8% DMSO in PBS). Mice were treated by oral administration (gavage) daily with pomalidomide (25 mg/kg) or Ctrl, and three times a week (Mon-Tues-Fri) with AR-42 (25 mg/kg) or Ctrl, until elimination criteria, including paralysis, extreme weight loss and dehydration, were reached.

pIC50: −log10 of the molar value.

The record followed here is patent US10022342B2, “Methods and compositions for treating multiple myeloma” (Ohio State Innovation Foundation, priority 2015, dated 2018).

In general, pIC50 refers to −log10 of the IC50, conventionally taken in molar units.

`Cc1[nH]c2ccccc2c1CCNCc1ccc(/C=C/C(=O)NO)cc1` [LBH, reference compound] showed a negative logarithm of the IC50 (pIC50) in the assay with MM cells of 8.00. Also, in assay [1] (data not shown), the dose response curve result is given as “No dose response curve could be obtained”. Take `O=C(CCCCCCC(=O)Nc1ccccc1)NO` [SAHA, suberoylanilide hydroxamic acid, reference compound]: in assay [1] (24 and 48 hours, 0.25, 0.5, and 1 μM), the “apoptosis (annexin staining)” value is “limited impact on apoptosis”.

In the case of `Nc1cccc2c1C(=O)N(C1CCC(=O)NC1=O)C2=O` (stereo not shown) [pomalidomide, reference compound], the median survival with MM.1S GFP/Luc+ cells was found to be 42 days.
